Molecules are shown by their SMILES.

One series addresses T1, Recombinant human protein tyrosine phosphatase 1B (Homo sapiens, UniProt P18031).
T1 construct: purchased UBI
T1 sequence (P18031 1-435): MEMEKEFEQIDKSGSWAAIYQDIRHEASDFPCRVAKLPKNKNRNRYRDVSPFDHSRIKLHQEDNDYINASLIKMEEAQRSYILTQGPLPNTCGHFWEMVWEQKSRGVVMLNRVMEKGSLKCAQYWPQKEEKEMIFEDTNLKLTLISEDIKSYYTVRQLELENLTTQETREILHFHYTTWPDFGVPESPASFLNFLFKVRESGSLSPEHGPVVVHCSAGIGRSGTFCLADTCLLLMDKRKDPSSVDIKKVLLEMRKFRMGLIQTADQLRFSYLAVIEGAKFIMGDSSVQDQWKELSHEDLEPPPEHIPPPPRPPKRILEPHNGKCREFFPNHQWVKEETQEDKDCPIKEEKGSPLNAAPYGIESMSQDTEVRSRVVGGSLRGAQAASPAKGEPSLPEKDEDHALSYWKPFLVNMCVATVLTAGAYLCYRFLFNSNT
Briefly: Protein tyrosine phosphatase 1B inhibitory activity (malachite green, phosphorylated insulin receptor peptide substrate). Type of series: biochemical. To be noted: recombinant human PTP1B, 60 min room temperature, absorbance 650 nm. As for the experimental part: Preparation of Assay Buffer:
A 50 mM Tris-HCl buffer (pH 7.5), 50 mM NaCl and 3 mM dithiothreitol (DTT) were prepared.
[…] 0.1, 0.3, 1, 3 and 10 μM of the test compound were prepared and diluted with the above-mentioned assay buffer to the final dimethyl sulfoxide (DMSO) concentration of not more than 1%. As the control, the assay buffer was used.
Preparation of Substrate:
Recombinant human protein tyrosine phosphatase 1B (manufactured by UBI) was diluted with the above-mentioned assay buffer (1.2 ng/25 μl).
The sample (10 μl) prepared as mentioned above and a substrate (25 μl) were successively added to a 96 well plate, and the enzyme (25 μl) prepared as mentioned above was added and mixed. The mixture was incubated at room temperature for 60 min and a malachite green (120 μl, Biomol), which is a color reagent, was added. The mixture was further incubated at room temperature for 20 min to allow for color development. An absorbance at 650 nm was measured on a plate reader based on which the protein tyrosine phosphatase 1B inhibitory activity of the test compound was evaluated.
With `CCCC(CCC)c1ccc(OCc2ccc(-c3csc(CN(C)S(=O)(=O)c4ccc(C(=O)O)cc4)n3)cc2)cc1` [Example 1-50], the IC50 (commonly the midpoint of a concentration-inhibition curve) turned out to be 0.14 µM. As to `CN(Cc1ccc(C(=O)O)cc1)c1nc(-c2ccc(C(=O)Nc3ccc(C4CCCCC4)cc3)cc2)cs1` [Example 1-53], the IC50 was determined as 0.24 µM.

As to `CN(Cc1ccc(C2CCC(C)(C)CC2)cc1)c1ccc(-c2csc(CN(CC(=O)O)Cc3ccccc3)n2)cc1` [Example 3-35], the IC50 was determined as 0.073 µM.

In the case of `CCCC(CCC)c1ccc(OCc2ccc(-c3ccc(CN(CC(=O)O)Cc4nc5ccccc5n4C)s3)cc2)cc1` [Example 4-1], the IC50 amounted to 0.15 µM. Still for that read-out and setting: the result for `CCCC(CCC)c1ccc(OCc2ccc(-c3csc(CN(CC(=O)O)Cc4nc5ccccc5n4C)c3)cc2)cc1` [Example 4-30] reads 0.17 µM. `CCCC(CCC)c1ccc(OCc2ccc(-c3ccc(CN(CC(=O)O)Cc4nc(C(C)(C)C)cs4)s3)cc2)cc1` [Example 4-35]: the half-inhibitory concentration (IC50) was found to be 0.087 µM. In the case of `CCCC(CCC)c1ccc(OCc2ccc(-c3ccc(C(=O)N(CC(=O)O)Cc4ncc(C(C)(C)C)s4)s3)cc2)cc1` [Example 4-43], the IC50 was 0.16 µM.

For `CCCC(CCC)c1ccc(OCc2ccc(-c3ccc(C(=O)N4CCN(c5ccc(C(=O)O)cc5)CC4)s3)cc2)cc1` [Example 4-52], the IC50 turned out to be 0.15 µM. As to `CCCC(CCC)c1ccc(OCc2ccc(-c3csc(COc4cc(C(=O)O)ccc4NC(=O)CN(C)C)c3)cc2)cc1` [Example 4-56], the 50% inhibitory concentration (IC50) turned out to be 0.2 µM. On the same count and under the same terms, the result for `CCCC(CCC)c1ccc(OCc2ccc(-c3csc(COc4cc(C(=O)O)ccc4N(C)S(C)(=O)=O)c3)cc2)cc1` [Example 4-59] reads 0.18 µM.

`CCCC(CCC)c1ccc(OCc2ccc(-c3csc(CN(CC(=O)O)C(=O)N(C)c4ccccc4)c3)cc2)cc1` [Example 4-72]: the IC50 amounted to 0.29 µM.

Tested on in another series: not given
Test: not given
Conditions: not given
Take `CCCC(CCC)c1ccc(COc2ccc(-c3csc(CN4Cc5ccccc5C[C@H]4C(=O)[O-])n3)cc2)cc1.[Na+]` [Example 3-112]: the melting point (commonly the temperature of the solid-liquid transition) lay within 254 to 255 °C. As to `CCCC(CCC)c1ccc(COc2ccc(-c3csc(COc4cncc(C(=O)O)c4)n3)c(C)c2)cc1` [Example 3-114], the melting point is 148 to 150 °C.

`CCCC(CCC)c1ccc(COc2ccc(-c3csc(COc4cncc(C(=O)O)c4)n3)cc2OC)cc1` [Example 3-115] showed a melting point of 156 to 158 °C. With `CCCC(CCC)c1ccc(COc2ccc(-c3csc(CN4Cc5ccccc5CC4C(=O)O)n3)cc2)cc1` (centres unmarked) [Example 3-118], the melting point fell in the range of 127 to 130 °C.

`CCCC(CCC)c1ccc(COc2ccc(-c3csc(CN(CC(=O)O)Cc4cscn4)n3)c(C)c2)cc1` [Example 3-121] returned a melting point of 103 to 104 °C.

`CCCC(CCC)c1ccc(COc2ccc(-c3csc(CN(CC(=O)O)Cc4csc(C)n4)n3)c(C)c2)cc1` [Example 3-122] registered a melting point of 98 to 103 °C. Regarding `CCCC(CCC)c1ccc(CN2CCCc3cc(-c4csc(CN(CC(=O)O)Cc5nc(C(C)(C)C)cs5)n4)ccc32)cc1` [Example 3-125], the melting point lay in the range of 132 to 135 °C. Compound `CCCC(CCC)c1ccc(COc2ccc(-c3csc(CN4CCN(c5ccc(C(=O)O)cc5)CC4)n3)cc2)cc1` [Example 3-127] had a melting point of 241 to 243 °C. `CCOC(=O)c1ccc(OCc2nc(-c3nc4cc(C(CC)CC)ccc4n3Cc3ccc(C(C)C)cc3)cs2)cc1` [Example 3-128] gave a melting point of 106 to 107 °C. On the same count and under the same terms, the result for `CCC(CC)c1ccc2c(c1)nc(-c1csc(COc3ccc(C(=O)O)cc3)n1)n2Cc1ccc(C(C)C)cc1` [Example 3-129] reads 139 to 142 °C; that for `CCC(CC)c1ccc2c(c1)nc(-c1csc(COc3ccc(C(=O)O)cc3)n1)n2Cc1ccc(C(C)=O)cc1` [Example 3-130], 127 to 132 °C; that for `CCC(CC)c1ccc2nc(-c3csc(COc4ccc(C(=O)O)cc4)n3)n(Cc3ccc(C(C)=O)cc3)c2c1` [Example 3-131], 138 to 139 °C.

The compound `CCC(CC)c1ccc2c(c1)nc(-c1csc(COc3ccc(C(=O)O)cc3)n1)n2CC1CCCCC1` [Example 3-132] came in with a melting point of 176 to 183 °C. Consider `CCCC(CCC)c1ccc(N(Cc2ccc(-c3csc(COc4cncc(C(=O)O)c4)c3)cc2)C(C)C)cc1` [Example 4-3], for which the melting point is 156 °C.

`CCC(CC)c1ccc(N(Cc2ccc(-c3csc(COc4cncc(C(=O)O)c4)c3)cc2)C(C)C)cc1` [Example 4-4] registered a melting point of 160 °C. Compound `CCCC(CCC)c1ccc(OCc2ccc(-c3ccc(CN(CC(=O)O)Cc4nc5ccccc5[nH]4)s3)cc2)cc1` [Example 4-8] had a melting point of 173 to 175 °C. `CCCC(CCC)c1ccc(OCc2ccc(-c3ccc(CN(CC(=O)O)CC(=O)Nc4ccccc4)s3)cc2)cc1` [Example 4-10] came in with a melting point of 122 to 124 °C.

For the compound `CCCC(CCC)c1ccc(OCc2ccc(-c3csc(CN(CC(=O)O)Cc4nc(C(C)(C)C)cs4)c3)cc2)cc1` [Example 4-15], the melting point came out at 166 °C. Compound `CCCC(CCC)c1ccc(OCc2ccc(-c3csc(CN(CC(=O)O)CC(=O)Nc4ccccc4)c3)cc2)cc1` [Example 4-16] came in with a melting point of 155 °C. Compound `CCC(CC)c1ccc(N(Cc2ccc(-c3ccc(COc4cncc(C(=O)O)c4)s3)cc2)C(C)C)cc1` [Example 4-17] had a melting point of 160 to 164 °C. `CCCC(CCC)c1ccc(N(Cc2ccc(-c3ccc(COc4cncc(C(=O)O)c4)s3)cc2)C(C)C)cc1` [Example 4-18] registered a melting point of 93 to 98 °C.

Compound `CCC(CC)c1ccc(N(Cc2ccc(-c3ccc(CN(CC(=O)O)Cc4nc(C(C)(C)C)cs4)s3)cc2)C(C)C)cc1` [Example 4-19] came in with a melting point of 92 to 98 °C.

As to `CCCC(CCC)c1ccc(N(Cc2ccc(-c3ccc(CN(CC(=O)O)Cc4nc(C(C)(C)C)cs4)s3)cc2)C(C)C)cc1` [Example 4-20], the melting point fell in the range of 78 to 82 °C. The compound `CCC(CC)c1ccc(N(Cc2ccc(-c3ccc(CN(CC(=O)O)Cc4nc5ccccc5[nH]4)s3)cc2)C(C)C)cc1` [Example 4-21] registered a melting point of 142 to 146 °C. On the same count and under the same terms, the result for `CCCC(CCC)c1ccc(N(Cc2ccc(-c3ccc(CN(CC(=O)O)Cc4nc5ccccc5[nH]4)s3)cc2)C(C)C)cc1` [Example 4-22] reads 144 to 150 °C; that for `CCCC(CCC)c1ccc(OCc2ccc(-c3csc(CN(CC(=O)O)CC(=O)Nc4ccc(C(C)C)cc4)c3)cc2)cc1` [Example 4-27], 164 to 166 °C; that for `CCC(CC)c1ccc(N(Cc2ccc(-c3ccc(CN4Cc5ccccc5C[C@H]4C(=O)O)s3)cc2)C(C)C)cc1` [Example 4-28], 152 °C.

With `CCCC(CCC)c1ccc(OCc2ccc(-c3csc(CN(CC(=O)O)Cc4ncc(C(C)(C)C)o4)c3)cc2)cc1` [Example 4-29], the melting point was 120.5 °C. In the case of `CCCC(CCC)c1ccc(OCc2ccc(-c3ccc(C(=O)N(CC(=O)O)Cc4ccccn4)s3)cc2)cc1` [Example 4-46], the melting point fell in the range of 147 to 150 °C. `CCCC(CCC)c1ccc(OCc2ccc(-c3ccc(C(=O)N(CC(=O)O)Cc4cccnc4)s3)cc2)cc1` [Example 4-47] registered a melting point of 153 to 156 °C.

With `CCCC(CCC)c1ccc(OCc2ccc(-c3csc(COc4cncc(C(=O)O)c4)c3)cc2)cc1.O=S(=O)(O)O` [Example 4-48], the melting point is 151 to 155 °C (dec.). `CCCC(CCC)c1ccc(OCc2ccc(-c3ccc(CN(CC(=O)O)S(C)(=O)=O)s3)cc2)cc1` [Example 4-49] displayed a melting point of 133.1 to 136.5 °C.

Take `CCCC(CCC)c1ccc(OCc2ccc(-c3csc(CN(CCC(C)C)CC(=O)O)c3)cc2)cc1` [Example 4-71]: the melting point is 176 to 182 °C. The compound `CCCC(CCC)c1ccc(OCc2ccc(-c3ccc(CN(CC(=O)O)Cc4cccc(C(=O)O)c4)s3)cc2)cc1` [Example 4-76] yielded a melting point of 202.8 to 206.4 °C. For `CCCC(CCC)c1ccc(OCc2ccc(-c3ccc(CN(CC(=O)OCC)Cc4nc5ccccc5n4C)s3)cc2)cc1` [Example 4-83], the melting point lay in the range of 82 to 84 °C. For `CC(C)(C)Cc1nc2ccccc2n1Cc1ccc(-c2csc(CN(CC(=O)O)Cc3ccccc3)c2)cc1` [Example 4-85], the melting point was 161 to 166 °C. In turn, `CCCC(CCC)c1ccc(OCc2ccc(-c3csc(CN(CC(=O)O)Cc4cn(C)c5ccccc45)c3)cc2)cc1` [Example 4-86] displayed a melting point of 170.5 to 171.9 °C. Same read-out and setting: the result for `CCCCOc1ccc(S(=O)(=O)N(CC)c2ccc(-c3csc(CN(CC(=O)O)Cc4ccccc4)c3)cc2)cc1` [Example 4-103] reads 120.7 to 123.3 °C; that for `O=C(O)CN(Cc1ccccc1)Cc1cc(-c2ccc(COc3cc(Cl)cc(Cl)c3)cc2)cs1` [Example 4-105], 202.3 to 204.2 °C.
